Data as given in US12344584B2, “KCNQ potentiators” (Eli Lilly and Company, priority 2019, dated 2025).
pEC50: −log10 of the molar value.

Biological target: T1, hKv7.2 and hKv7.3 (Kv7.2/7.3) (Homo sapiens, UniProt O43525+O43526)
T1 construct: host or cells: HEK293
Assay: Modulation of Kv7.2/7.3 conductance, automated electrophysiology (IonWorks Barracuda, population patch clamp) in HEK293 cells
Format: cell-based
Parameters: Voltage Shift ([…]V0.5), Mean: unit not given here
Experimental: Modulation of Kv7.2/7.3 Conductance by Kv7 Potentiators in a Mammalian Expression System
The potency and efficacy of Kv7 potentiators is assessed by automated electrophysiology on the IonWorks Barracuda (Molecular Devices) platform using the population patch clamp mode of the instrument.
Cell Culture: HEK293 cells stably expressing hKv7.2 (under tetracycline induction) and hKv7.3 (Catalog #CT6147, Charles River) are used for these studies. Cells are maintained in a Dulbecco's modified Eagle's medium/nutrient mixture Ham's F-12 (Sigma-Aldrich) supplemented with 5% tetracycline-screened fetal bovine serum (Sigma-Aldrich), 15 mM HEPES, 500 μg/mL G418, 100 U/mL penicillin, 100 μg/mL streptomycin, […] L-glutamine, 100 μg/mL zeocin, and 5 μg/mL blasticidin. Expression of hKv7.2 is induced by addition of 1 μg/mL doxycycline 24 h prior to recordings.
Cells are cultured in Corning T-150 flasks to a confluence of 85%-95%. At the start of an experiment, cells are washed once with D-PBS without calcium and magnesium and then dissociated by incubating in 3 ml of 0.25% trypsin for 8 min at 37° C. Cells ware resuspended in media, triturated gently, and centrifuged for 4 min at 1,000 rpm. Cells are resuspended in external solution to a final concentration of 2.5-3.5M cells/mL.
Solutions: External solution w is composed of (in mM): 140 NaCl, 5 KCl, 2 CaCl2, 1 MgCl2, 10 HEPES, 10 Glucose, pH 7.4. Internal solution is composed of (in mM): 90 K-gluconate, 40 KCl, 3.2 EGTA, 3.2 MgCl2, 5 HEPES, pH 7.25. The membrane perforating agent amphotericin B is prepared daily as a 27 mg/mL stock solution in DMSO and then added to the internal solution to a final concentration of 0.1 mg/mL. Test article dilutions are prepared in 384-well plates from 10 mM DMSO stock solutions and diluted using acoustic dispensing (Labcyte ECHO®), such that final DMSO concentrations are 0.1%.
Electrophysiological Recordings: Resuspended cells are placed on the IONWORKS® BARRACUDA™ (IWB) instrument, external solution is added to a 384-well patch plate, and a hole test is performed to determine blocked wells and offset voltages. Cells are then added to the patch plate (9 μL per well) by the instrument. Two seal tests are performed prior to introducing the perforating agent amphotericin in the internal solution and allowing approximately 8 min to obtain electrical access, which is verified by a third seal test. The command voltage protocol consists of a family of 1 sec voltages steps from −80 mV to +40 mV from a holding potential of −80 mV and is applied prior to (baseline) and 6 min after test article addition.
Data Analysis: Data are acquired and leak subtracted using IWB software. Current amplitudes during the last 10 msec of each voltage step are averaged and exported. Further analysis is performed using Microsoft Excel and GraphPad Prism. Current amplitude is converted to conductance (G) by the following formula: G=I/(V−Ek) where I=current, V=step potential, Ek=potassium reversal potential (−84 mV). Conductance in the presence of test article is normalized to the baseline conductance at +40 mV for the same well. Conductance-voltage (G−V) curves are fitted with the Boltzmann equation y=Bottom+(Top−Bottom)/(1+EXP((Vm−V0.5/k)).
Fitting a 4-parameter logistic equation to the data may be used to determine the potency (EC50) and efficacy (maximal shift) for each test compound.

[1] = 4-parameter logistic fit of voltage shift data

Structure (SMILES): CC(C)(C)[C@H](O)CNC(=O)NCc1ccnc(OCC(F)(F)F)c1 [Example 1, 1-[(2S)-2-hydroxy-3,3-dimethyl-butyl]-3-[[2-(2,2,2-trifluoroethoxy)-4-pyridyl]methyl]urea]
- Voltage Shift ([…]V0.5), Mean (0.0005 μM): 2.6
- Voltage Shift ([…]V0.5), Mean (0.0015 μM): 2.0
- Voltage Shift ([…]V0.5), Mean (0.005 μM): 3.0
- Voltage Shift ([…]V0.5), Mean (0.01 μM): 1.6
- Voltage Shift ([…]V0.5), Mean (0.04 μM): 1.3
- Voltage Shift ([…]V0.5), Mean (0.12 μM): 0.0
- Voltage Shift ([…]V0.5), Mean (0.37 μM): −3.5
- Voltage Shift ([…]V0.5), Mean (1.11 μM): −13.2
- Voltage Shift ([…]V0.5), Mean (3.33 μM): −28.0
- Voltage Shift ([…]V0.5), Mean (10 μM, difference from control in voltage at half-maximal conductance): −38.0
- Maximal Shift (efficacy) [1]: −44
- Slope [1]: 1.2
- pEC50 (4-parameter logistic fit of voltage shift data, read-out: EC50 (potency of V0.5 shift)): 5.70
